Experimental data reported in US4716228A, “Condensed 2-substituted thiazole derivatives” (Farmitalia Carlo Erba S.p.A., priority 1985, dated 1987).

Tests used:
[1] = system: acetyl salicylic acid (ASA) induced gastric ulcers; assay: inhibition of acetyl salicylic acid (ASA) induced gastric ulcers in rats; assay type: in vivo; conditions: po; rat, p.o.; read-out: ASA Test ED50
Description: The activity of these compounds was assessed in rats in anti-ulcer and anti-secretory tests. The anti-ulcerogenic activity of the compounds of the invention is shown, for example, by the fact that they are active in the test of the inhibition of acetyl salicylic acid (ASA) induced gastric ulcers in rats (M. Hemmati et al., Pharmacology, 9, 374, 1973).

histamine H2-receptor = histamine H2-receptor antagonist activity in vitro on the guinea pig right atrium; assay type: cell-based; conditions: screening dose 1.10^-5 M
Description: The compounds of the invention were assayed for histamine H2 -receptor antagonist activity in vitro on the guinea pig right atrium. Male guinea pigs were killed by a blow on the head and the heart was quickly excised and placed in oxygenated Ringer Locke solution of the following composition (g/l): NaCl 9, KCl 0.42, CaCl2 0.24, NaHCO3 0.5, Glucose 1. Atria were dissected away from the rest of the heart, freed from connective tissue, suspended in 20 ml organ bath containing Ringer Locke solution thermoregulated at 37° C., and carboxygenated with 95% O2 and 5% CO2. Atria spontaneously beating were allowed to adjust to the bath conditions for at least 30 minutes prior to the experiment. Histamine was added to the bath in cumulative fashion starting from 3×10^-7 M till 1×10^-4 M. The histamine-induced increase in atrial rate was allowed to plateau before the next successive concentration was added. After washing and waiting for the recovery of atria rate, compounds were added 5 minutes before repeating the cumulative dose response curve with histamine.
A compound is considered an H2 -receptor antagonist if it is able to shift the dose response curve of histamine to the right of the concentration <1×10^-5 M.

gastric secretion = assay: gastric anti-secretory activity, pylorus ligature technique; assay type: in vivo, rats; conditions: rat, i.d., read-out: Antisecretory activ. test ED50
Description: The gastric anti-secretory activity of the compounds of the invention was evaluated in rats by the pylorus ligature technique (H. Shay et al., Gastroenterology 5, 43, 1945).

stress ulcers = assay: inhibition of stress ulcers in rats (restraint in water at 23° C. for 4 hours); assay type: in vivo; conditions: po, rat, p.o., read-out: Stress Test ED50
Description: The anti-ulcerogenic activity of the compounds of the invention is shown also by the fact that they are active in the test of the inhibition of stress ulcers in rats (restraint in water at 23° C. for 4 hours), according to the method of M. Usardi et al. (Prostaglandins, 8, 43, 1974).

[2] = system: duodenal ulcers, induced by cysteamine; assay: inhibition of duodenal ulcers induced in rats by cysteamine; assay type: in vivo; conditions: po; rat, p.o.; inhibition of ulcer index; read-out: Cysteamine Test ED50
Description: The inhibition of duodenal ulcers, induced in rats by cysteamine, was evaluated for the test of compounds as percentage inhibition of ucler index [sum of the lesioned areas per rat (mm^2)] according to the method of Fuji Y. et at, Jap. J. Pharm. 25, 663, 1975.

CC(C)NC(=O)N1CCc2nc(N=C(N)N)sc2C1 [Example 1, 2-Guanidino-5-isopropylcarbamoyl-4,5,6,7-teteahydrothiazolo-[5,4-c]pyridine]
ED50 [1]: 0.017 mg/kg
Anti-H2 activity test (histamine H2-receptor): active
ED50 (gastric secretion): 0.33 mg/kg
ED50 (stress ulcers): 2.9 mg/kg
ED50 [2]: 0.4 mg/kg
